What all share (assay type): ADME, organism-based
The nature of data set [1]: Compound was evaluated for plasma half life in rat.
Data set [2] in a line: Oral bioavailability in rat. The note with it: in vivo.
The nature of data set [3]: Compound was evaluated for plasma clearance in rat. The settings on record: read-out: Clp.
Data set [4] in a line: Compound was evaluated for volume of distribution in rat. The note with it: in vivo.

The half-life is how long it takes for the measured level to halve. Read a low half-life as rapid decline. What is called bioavailability is the share of a dose that reaches the circulation, judged against a reference dose that is usually intravenous. A higher bioavailability goes with much systemic uptake. As usually defined, the Vd is the apparent volume that relates the amount in the body to the concentration in plasma or blood. Low values mean little distribution into tissue, high ones wide distribution into tissue.

`CCCCc1nn(CCCC)c(C(=O)O)c1Cc1ccc(-c2ccccc2-c2nn[nH]n2)cc1` had a half-life in data set [1] of 888 min. Further, in data set [2], the bioavailability came to 26%. For the same compound, the clearance in data set [3] worked out at 0.12 mL/min/kg. For the same compound, the volume of distribution (Vd) in data set [4] amounted to 0.16 L/kg.

As for `CCCCc1nn(CC2CC2)c(C(=O)O)c1Cc1ccc(-c2ccccc2-c2nn[nH]n2)cc1`, in data set [1], the half-life was 738 min. In addition, in data set [2], the bioavailability turned out to be 58%. For the same compound, the clearance in data set [3] worked out at 0.2 mL/min/kg. In data set [4], this compound returned a Vd of 0.2 L/kg.

These data come from ChEMBL document CHEMBL1127865, “C-linked pyrazole biaryl tetrazoles as antagonists of angiotensin II Part II: pharmacokinetics and an efficient regioselective synthesis” (Bioorg Med Chem Lett, 1994).
